Results published in the NIST ThermoML archive (doi:10.1016/j.fluid.2007.11.005).
Numbers after ± are expanded uncertainties.

Details: Liquid, Bellows volumetry

CCCCn1cc[n+](C)c1.F[B-](F)(F)F [1-butyl-3-methylimidazolium tetrafluoroborate]
mass density [kg/m3]
Details | 313.1 K | 332.6 K | 352.6 K | 372.7 K | 392.8 K | 412.9 K | 432.6 K | 452.3 K | 472.2 K
100 kPa | 1191 ± 3 | – | – | – | – | – | – | – | –
10000 kPa | 1195 ± 3 | 1182 ± 3 | 1168 ± 3 | 1155 ± 3 | 1142 ± 3 | 1129 ± 3 | 1116 ± 3 | 1102 ± 3 | 1090 ± 2
20000 kPa | 1200 ± 3 | 1186 ± 3 | 1173 ± 3 | 1160 ± 3 | 1148 ± 3 | 1135 ± 3 | 1122 ± 3 | 1108 ± 3 | 1096 ± 2
30000 kPa | 1204 ± 3 | 1191 ± 3 | 1178 ± 3 | 1165 ± 3 | 1153 ± 3 | 1140 ± 3 | 1127 ± 3 | 1115 ± 3 | 1102 ± 3
40000 kPa | 1208 ± 3 | 1195 ± 3 | 1182 ± 3 | 1170 ± 3 | 1158 ± 3 | 1145 ± 3 | 1133 ± 3 | 1120 ± 3 | 1108 ± 3
50000 kPa | 1212 ± 3 | 1200 ± 3 | 1187 ± 3 | 1174 ± 3 | 1163 ± 3 | 1150 ± 3 | 1138 ± 3 | 1126 ± 3 | 1114 ± 3
60000 kPa | 1216 ± 3 | 1204 ± 3 | 1191 ± 3 | 1179 ± 3 | 1167 ± 3 | 1155 ± 3 | 1143 ± 3 | 1131 ± 3 | 1119 ± 3
70000 kPa | 1220 ± 3 | 1208 ± 3 | 1195 ± 3 | 1183 ± 3 | 1172 ± 3 | 1160 ± 3 | 1148 ± 3 | 1136 ± 3 | 1124 ± 3
80000 kPa | 1224 ± 3 | 1212 ± 3 | 1199 ± 3 | 1187 ± 3 | 1176 ± 3 | 1164 ± 3 | 1152 ± 3 | 1140 ± 3 | 1129 ± 3
90000 kPa | 1227 ± 3 | 1215 ± 3 | 1203 ± 3 | 1191 ± 3 | 1180 ± 3 | 1169 ± 3 | 1157 ± 3 | 1145 ± 3 | 1134 ± 3
100000 kPa | 1231 ± 3 | 1219 ± 3 | 1207 ± 3 | 1195 ± 3 | 1184 ± 3 | 1173 ± 3 | 1161 ± 3 | 1150 ± 3 | 1139 ± 3
110000 kPa | 1234 ± 3 | 1223 ± 3 | 1211 ± 3 | 1199 ± 3 | 1188 ± 3 | 1177 ± 3 | 1165 ± 3 | 1154 ± 3 | 1143 ± 3
120000 kPa | 1238 ± 3 | 1226 ± 3 | 1214 ± 3 | 1203 ± 3 | 1192 ± 3 | 1181 ± 3 | 1170 ± 3 | 1158 ± 3 | 1147 ± 3
130000 kPa | 1241 ± 3 | 1229 ± 3 | 1218 ± 3 | 1206 ± 3 | 1195 ± 3 | 1185 ± 3 | 1173 ± 3 | 1162 ± 3 | 1152 ± 3
140000 kPa | 1244 ± 3 | 1233 ± 3 | 1221 ± 3 | 1210 ± 3 | 1199 ± 3 | 1189 ± 3 | 1177 ± 3 | 1166 ± 3 | 1156 ± 3
150000 kPa | 1248 ± 3 | 1236 ± 3 | 1225 ± 3 | 1213 ± 3 | 1203 ± 3 | 1192 ± 3 | 1181 ± 3 | 1170 ± 3 | 1160 ± 3
160000 kPa | 1251 ± 3 | 1239 ± 3 | 1228 ± 3 | 1217 ± 3 | 1206 ± 3 | 1196 ± 3 | 1185 ± 3 | 1174 ± 3 | 1164 ± 3
170000 kPa | 1254 ± 3 | 1243 ± 3 | 1231 ± 3 | 1220 ± 3 | 1210 ± 3 | 1199 ± 3 | 1188 ± 3 | 1177 ± 3 | 1167 ± 3
180000 kPa | 1257 ± 3 | 1246 ± 3 | 1234 ± 3 | 1223 ± 3 | 1213 ± 3 | 1203 ± 3 | 1192 ± 3 | 1181 ± 3 | 1171 ± 3
190000 kPa | 1260 ± 3 | 1249 ± 3 | 1237 ± 3 | 1227 ± 3 | 1216 ± 3 | 1206 ± 3 | 1195 ± 3 | 1185 ± 3 | 1175 ± 3
200000 kPa | 1263 ± 3 | 1252 ± 3 | 1241 ± 3 | 1230 ± 3 | 1220 ± 3 | 1210 ± 3 | 1199 ± 3 | 1188 ± 3 | 1178 ± 3

CCCCCCCCOS(=O)(=O)[O-].CCCCn1cc[n+](C)c1 [1-butyl-3-methylimidazolium octyl sulfate]
mass density [kg/m3]
Details | 312.9 K | 332.8 K | 352.8 K | 373 K | 393.1 K | 413 K | 432.9 K | 452.7 K | 472.6 K
100 kPa | 1060 ± 6 | – | – | – | – | – | – | – | –
10000 kPa | 1065 ± 6 | 1052 ± 6 | 1040 ± 6 | 1028 ± 6 | 1016 ± 6 | 1004 ± 5 | 992 ± 5 | 978 ± 5 | 964 ± 5
20000 kPa | 1070 ± 6 | 1058 ± 6 | 1046 ± 6 | 1034 ± 6 | 1023 ± 6 | 1011 ± 6 | 999 ± 5 | 985 ± 5 | 972 ± 5
30000 kPa | 1075 ± 6 | 1063 ± 6 | 1051 ± 6 | 1040 ± 6 | 1028 ± 6 | 1017 ± 6 | 1006 ± 5 | 992 ± 5 | 980 ± 5
40000 kPa | 1080 ± 6 | 1068 ± 6 | 1056 ± 6 | 1045 ± 6 | 1034 ± 6 | 1023 ± 6 | 1012 ± 6 | 999 ± 5 | 987 ± 5
50000 kPa | 1084 ± 6 | 1073 ± 6 | 1061 ± 6 | 1050 ± 6 | 1039 ± 6 | 1029 ± 6 | 1018 ± 6 | 1005 ± 5 | 993 ± 5
60000 kPa | 1091 ± 6 | 1077 ± 6 | 1066 ± 6 | 1055 ± 6 | 1045 ± 6 | 1034 ± 6 | 1023 ± 6 | 1011 ± 6 | 999 ± 5
70000 kPa | 1093 ± 6 | 1081 ± 6 | 1070 ± 6 | 1060 ± 6 | 1049 ± 6 | 1039 ± 6 | 1029 ± 6 | 1017 ± 6 | 1005 ± 5
80000 kPa | 1097 ± 6 | 1085 ± 6 | 1075 ± 6 | 1064 ± 6 | 1054 ± 6 | 1044 ± 6 | 1034 ± 6 | 1022 ± 6 | 1011 ± 6
90000 kPa | 1096 ± 6 | 1089 ± 6 | 1079 ± 6 | 1068 ± 6 | 1058 ± 6 | 1049 ± 6 | 1038 ± 6 | 1027 ± 6 | 1016 ± 6
100000 kPa | – | 1093 ± 6 | 1083 ± 6 | 1073 ± 6 | 1063 ± 6 | 1053 ± 6 | 1043 ± 6 | 1032 ± 6 | 1021 ± 6
110000 kPa | – | 1097 ± 6 | 1087 ± 6 | 1077 ± 6 | 1067 ± 6 | 1057 ± 6 | 1048 ± 6 | 1036 ± 6 | 1026 ± 6
120000 kPa | – | 1101 ± 7 | 1090 ± 6 | 1080 ± 6 | 1071 ± 6 | 1062 ± 6 | 1052 ± 6 | 1041 ± 6 | 1030 ± 6
130000 kPa | – | 1104 ± 7 | 1094 ± 6 | 1084 ± 6 | 1075 ± 6 | 1066 ± 6 | 1056 ± 6 | 1045 ± 6 | 1035 ± 6
140000 kPa | – | 1107 ± 7 | 1097 ± 6 | 1088 ± 6 | 1078 ± 6 | 1069 ± 6 | 1060 ± 6 | 1049 ± 6 | 1039 ± 6
150000 kPa | – | 1111 ± 7 | 1101 ± 7 | 1091 ± 6 | 1082 ± 6 | 1073 ± 6 | 1064 ± 6 | 1053 ± 6 | 1043 ± 6
160000 kPa | – | 1114 ± 7 | 1104 ± 7 | 1095 ± 6 | 1086 ± 6 | 1077 ± 6 | 1068 ± 6 | 1057 ± 6 | 1047 ± 6
170000 kPa | – | 1117 ± 7 | 1107 ± 7 | 1098 ± 7 | 1089 ± 6 | 1080 ± 6 | 1071 ± 6 | 1061 ± 6 | 1051 ± 6
180000 kPa | – | 1120 ± 7 | 1111 ± 7 | 1102 ± 7 | 1093 ± 6 | 1084 ± 6 | 1075 ± 6 | 1065 ± 6 | 1055 ± 6
190000 kPa | – | 1123 ± 7 | 1114 ± 7 | 1105 ± 7 | 1096 ± 7 | 1087 ± 6 | 1078 ± 6 | 1068 ± 6 | 1059 ± 6
200000 kPa | – | 1126 ± 7 | 1117 ± 7 | 1108 ± 7 | 1099 ± 7 | 1091 ± 6 | 1082 ± 6 | 1072 ± 6 | 1062 ± 6
